From ChEMBL document CHEMBL1201862, “PubChem BioAssay data set” (2004)
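How tested: cells in 96-well plates exposed to compound for 48 hours at five concentrations. Abbreviation: GI50, concentration required for 50% inhibition of growth.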 Active and inactive are the calls of the source. Rule as the data show it: active = GI50 up to about 1.1 µM and inactive = higher.

Assays:
Assay in all cases: NCI-60 cell line screen, 48 h
[1] = system: A498
[2] = system: CAKI-1
[3] = system: CCRF-CEM
[4] = system: HCT-116
[5] = system: HOP-62
[6] = system: HOP-92
[7] = system: KM12
[8] = system: NCI-H522
[9] = system: OVCAR-8
[10] = system: SF-295
[11] = system: SK-MEL-2
[12] = system: SNB-19
[13] = system: UACC-257
[14] = system: UACC-62
[15] = system: UO-31
[16] = system: HCC 2998
[17] = system: OVCAR-4
[18] = system: NCI-H226

Measured: GI50

Cc1c(OCCCOc2ccc3c(=O)cc(-c4ccccc4)oc3c2C)ccc2c(=O)cc(-c3ccccc3)oc12
inactive: [1] > 100 µM | [2] > 100 µM | [3] 68.7 µM | [4] > 100 µM | [5] 61.1 µM | [6] > 100 µM | [7] > 100 µM | [8] > 100 µM | [9] > 100 µM | [10] > 100 µM | [11] > 100 µM | [12] > 100 µM | [13] > 100 µM | [14] > 100 µM | [15] > 100 µM

C1CSC(=[N+]2CC[N+](=C3SCCS3)CC2)S1
inactive: [1] > 100 µM | [2] > 100 µM | [3] 36.6 µM | [16] > 100 µM | [4] > 100 µM | [5] > 100 µM | [6] 45.4 µM | [7] > 100 µM | [8] > 100 µM | [17] > 100 µM | [9] > 100 µM | [10] > 100 µM | [11] > 100 µM | [12] > 100 µM | [13] > 100 µM | [14] > 100 µM | [15] > 100 µM

CN(C)C(=S)/N=c1\ss/c(=N\C(=S)N(C)C)n1-c1cccc(Cl)c1
inactive: [1] > 100 µM | [2] > 100 µM | [3] > 100 µM | [16] > 100 µM | [4] > 100 µM | [5] > 100 µM | [7] > 100 µM | [18] > 100 µM | [8] > 100 µM | [17] > 100 µM | [9] > 100 µM | [10] > 100 µM | [11] > 100 µM | [12] > 100 µM | [13] > 100 µM | [14] > 100 µM | [15] > 100 µM

NC(=O)C(=Cc1ccc(C(O)P(=O)(O)O)cc1)C(N)=O (stereo not drawn)
inactive: [1] > 100 µM | [2] > 100 µM | [16] > 100 µM | [4] > 100 µM | [5] > 100 µM | [6] > 100 µM | [7] > 100 µM | [8] > 100 µM | [17] > 100 µM | [9] > 100 µM | [10] > 100 µM | [11] > 100 µM | [12] > 100 µM | [13] > 100 µM | [14] > 100 µM | [15] > 100 µM

COC1CC(O[C@H]2CC[C@@]3(C)C(=CCC4(O)C3CCC35C(=O)OC6(C)O[C@@]43CCC65)C2)OC(C)C1O (stereo partly drawn)
inactive: [1] > 100 µM | [2] > 100 µM | [3] > 100 µM | [16] > 100 µM | [4] > 100 µM | [5] > 100 µM | [7] > 100 µM | [18] > 100 µM | [8] > 100 µM | [17] > 100 µM | [9] > 100 µM | [10] > 100 µM | [11] > 100 µM | [12] > 100 µM | [13] > 100 µM | [14] > 100 µM | [15] > 100 µM

CC1=CC2C(C=C1)S(=O)(=O)N1CC21c1ccccc1 (stereo not drawn)
inactive: [1] > 100 µM | [2] 44.2 µM | [3] > 100 µM | [16] > 100 µM | [4] > 100 µM | [5] > 100 µM | [6] 15.1 µM | [7] > 100 µM | [8] > 100 µM | [9] > 100 µM | [10] > 100 µM | [11] > 100 µM | [12] > 100 µM | [13] > 100 µM | [14] 64.6 µM | [15] 55.1 µM
